Laboratory results taken from article PMC10137182, “Novel CDK12/13 Inhibitors AU-15506 and AU-16770 Are Potent Anti-Cancer Agents in EGFR Mutant Lung Adenocarcinoma with and without Osimertinib Resistance” (Cancers, 2023).
pIC50: −log10 of the molar value. Read-outs that look alike come from different tables or passages of the source.

How the values were obtained:
FGFR1 = FGFR1 (Homo sapiens, UniProt P11362); design: method as in PMID 19282669; conditions: at 1 μM; cited from earlier work
H1975-osiR-NCI1 cells = experiment: Cell-growth-inhibition end-point assay (CellTiter-Glo, 72 h); format: cell-based; conditions: Homo sapiens
Description: (§1) After 3–4 days of growth, surviving cells were trypsinized and plated again at the same initial density and the next day, the medium was replaced with a fresh growth medium, supplemented with 2× (relative to the previous concentration) of osimertinib. This process continued until osimertinib concentration reached […]. The newly generated osimertinib-resistant cells (H1975-osiR-NCI1, PC9-osiR-NCI1, HCC827-osiR-NCI1, and HCC827-osiR-NCI2) were then maintained at […] osimertinib.
(§2) Approximately 1500 cells/[…] were plated in 96-well plates with 4 wells for each treatment condition. Plates were incubated at 37 °C. For the cell growth assay, one set of cells was treated each day for 5 days with cell titer glow reagent (Promega), and luciferase luminescence (indicator of cell viability) was measured according to the manufacturer’s protocol. For the growth inhibition end-point assay, cells in 96-well plates were treated with target drugs as follows.

HCC827-osiR-NCI1 cells = experiment: as above; format: cell-based; conditions: Homo sapiens
Description: as §1, §2

PC9-osiR-NCI1 cells [1] = experiment: as above; format: cell-based; conditions: Homo sapiens, read-out: IC50 (osimertinib), PC9-osiR-NCI1
Description: as §1, §2

H1975 cells = experiment: as above; format: cell-based; conditions: Homo sapiens, NCI-H1975, osimertinib alone; Figure 1B
Description: as §2

HCC827 cells = experiment: as above; format: cell-based; conditions: Homo sapiens, HCC827, read-out: IC50 (osimertinib), HCC827
Description: as §2

PC9 cells [2] = experiment: as above; format: cell-based; conditions: Homo sapiens, PC-9, read-out: IC50 (osimertinib), PC9
Description: as §2

[3] = tested on: H1975, PC9, and HCC827 parental and osimertinib-resistant cells; experiment: Cell-growth-inhibition assays, summary over the cell panel; format: cell-based; conditions: Homo sapiens
Description: as §2

[4] = tested on: PC9-osiR-NCI1-derived tumors; experiment: Subcutaneous xenograft mouse model; format: in vivo, athymic female nude mice
Description: All mice xenograft studies were conducted on 5–6-week-old female athymic nude mice […] with approval from the NCI Animal Care and Use Committee (ACUC). Mice were obtained from NCI-Frederick and maintained in a pathogen-free facility at the NCI. H1975-osiR-NCI1 or PC9-osiR-NCI1 cells were cultured in RPMI (Millipore-Sigma) supplemented with 10% fetal bovine serum (Gemini) and 1% penicillin/streptomycin. All cell lines were then cultured in a humidified incubator with 5% CO2 at 37 °C. Cells were detached using 0.25% trypsin (ThermoFisher) and resuspended in PBS prior to implantation. Approximately 2 × 10^6 cells/0.1 mL/mouse were implanted subcutaneously. […] Tumor growth was monitored twice weekly by bilateral caliper measurement and tumor volume was calculated using the length × diameter^2 formula. Mice with tumor volume <200 mm^3 were randomized into vehicle or treatment groups to ensure equal distribution across groups. However, for tumor tissue collection and lysate preparation, mice with xenografts were maintained with osimertinib until tumor size reached approximately 900 mm^3 prior to drug treatment for 5 days. Vehicle (0.5% methyl cellulose), osimertinib (5 mg/kg/day), AU-15506 (5 mg/kg/day), or AU-16770 (5 mg/kg/day) were administered by oral gavage. AU-15506 or AU-16770 were prepared in a solution containing 10% PEG400, 10% D-ɑ-tocopheryl polyethylene glycol succinate (TPGS), and 0.4% Tween 80. Tumor size was measured twice weekly. Tumor volume for each mouse was converted to percent change based on a baseline volume of 100% on treatment day 0. Tumor growth inhibition was assessed by comparison of either the average tumor volume or mean changes in tumor volume for the control and treatment groups. Statistical significance was evaluated using a two-tailed Student’s t test.

PC9 cells [5] = experiment: Cell-cycle analysis by flow cytometry (propidium iodide); format: cell-based, human; conditions: 50 nM osimertinib or 100 nM AU-16770, 18 h
Description: (§3) PC9 and PC9-osiR-NCI1 cells were initially grown in an RPMI-1640 medium supplemented with 10% FBS, 1% penicillin/streptomycin, and 2 […]. Following 3–4 days of growth, cells were trypsinized, replated in 10 cm Petri dishes and grown in drug-free RPMI-1640, 10% FBS, and 1% penicillin/streptomycin. Both groups of cells were treated with DMSO (vehicle), osimertinib (50 nM), or AU-16770 (100 nM) for 18 h. Cells were trypsinized, washed with PBS, fixed in 70% ethanol, washed twice in PBS, and approximately 5 × 10^5 cells/mL were incubated in […] propidium iodide/PBS and 100 units/mL RNase to label the DNA for 1 h before it was analyzed by FACS.

PC9-osiR-NCI1 cells [6] = experiment: as above; format: cell-based, human; conditions: 50 nM osimertinib or 100 nM AU-16770, 18 h
Description: as §3

Chain of FGFR1 (P11362 22-822, species assumed): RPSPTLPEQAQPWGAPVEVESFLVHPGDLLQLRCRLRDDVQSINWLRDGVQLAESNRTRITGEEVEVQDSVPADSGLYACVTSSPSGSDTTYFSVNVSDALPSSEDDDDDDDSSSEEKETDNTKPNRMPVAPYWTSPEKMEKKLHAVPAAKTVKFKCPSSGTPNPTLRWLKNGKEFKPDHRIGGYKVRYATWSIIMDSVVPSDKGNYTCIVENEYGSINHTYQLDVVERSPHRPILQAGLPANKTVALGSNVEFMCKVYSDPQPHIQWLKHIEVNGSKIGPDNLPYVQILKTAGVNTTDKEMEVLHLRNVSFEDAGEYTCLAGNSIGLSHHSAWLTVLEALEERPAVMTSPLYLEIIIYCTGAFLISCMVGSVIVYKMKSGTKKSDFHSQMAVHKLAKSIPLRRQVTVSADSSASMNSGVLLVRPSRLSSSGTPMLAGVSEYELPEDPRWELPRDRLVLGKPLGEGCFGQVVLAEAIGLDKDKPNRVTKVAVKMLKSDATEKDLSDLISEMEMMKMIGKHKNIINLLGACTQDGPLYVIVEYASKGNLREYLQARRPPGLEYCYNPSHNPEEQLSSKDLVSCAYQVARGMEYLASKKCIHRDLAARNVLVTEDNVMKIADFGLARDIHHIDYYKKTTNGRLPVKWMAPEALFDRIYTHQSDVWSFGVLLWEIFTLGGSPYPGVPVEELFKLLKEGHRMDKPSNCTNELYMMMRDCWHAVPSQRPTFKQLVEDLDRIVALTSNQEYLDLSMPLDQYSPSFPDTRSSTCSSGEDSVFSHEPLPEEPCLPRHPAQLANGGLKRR

Row | SMILES | inhibition of FGFR1 (FGFR1) [%] | pIC50 (H1975-osiR-NCI1 cells; NCI-H1975/OSIR, osimertinib alone, read-out: IC50, H1975-osiR cells) | pIC50 (H1975-osiR-NCI1 cells; read-out: IC50 (osimertinib), H1975-osiR-NCI1) | pIC50 (HCC827-osiR-NCI1 cells; read-out: IC50 (osimertinib), HCC827-osiR-NCI1) | pIC50 (HCC827-osiR-NCI1 cells; read-out: IC50, HCC827-osiR cells) | pIC50 (PC9-osiR-NCI1 cells [1]) | pIC50 (H1975 cells) | pIC50 (HCC827 cells) | pIC50 (PC9 cells [2]) | pIC50 ([3]; read-out: IC50s, osimertinib-resistant cells (range over cell lines)) | pIC50 ([3]; read-out: IC50s, osimertinib-sensitive cells (range over cell lines)) | effect on xenograft tumor growth ([4]; 5 mg/kg/day oral gavage, AU-15506 arms 14 days, AU-16770 arms 28 days) | median survival (Kaplan–Meier) ([4]; 5 mg/kg/day, combination = AU-16770-osimertinib (days 0–32), AU-15506-osimertinib (days 33–46)) [days] | Tumor growth inhibition (TGI) ([4]; Day 28, 5 mg/kg/day oral gavage) [%] | Cell Cycle Phase % G1, PC9 (PC9 cells [5]) [%] | Cell Cycle Phase % G2, PC9 (PC9 cells [5]) [%] | Cell Cycle Phase % S, PC9 (PC9 cells [5]) [%] | Cell Cycle Phase % G1, PC9-osiR (PC9-osiR-NCI1 cells [6]) [%] | Cell Cycle Phase % G2, PC9-osiR (PC9-osiR-NCI1 cells [6]) [%] | Cell Cycle Phase % S, PC9-osiR (PC9-osiR-NCI1 cells [6]) [%]
1 | CN(C)C/C=C/C(=O)Nc1ccc(C(=O)N2CCC[C@@H](Nc3ncc(Cl)c(-c4c[nH]c5ccccc45)n3)C2)cc1 [THZ531] | 82 | – | – | – | – | – | – | – | – | – | – | – | – | – | – | – | – | – | – | –
2 | C=CC(=O)Nc1cc(Nc2nccc(-c3cn(C)c4ccccc34)n2)c(OC)cc1N(C)CCN(C)C [osimertinib] | – | 5.73 | 5.73 | 5.26 | 5.26 | 5.65 | 7.33 | 8.12 | 7.43 | 5.26 to 5.73 | 7.33 to 8.12 | induced some tumor regression | 40 | 50 | 67.40 | 24.8 | 13.10 | 54.10 | 1.41 | 38.40
